From US7687538B2 (priority 2004, dated 2010)

Experiments:
κ-opioid receptor (KOR) = κ-opioid receptor (KOR) (Homo sapiens, UniProt P41145); experiment: biochemical; format: binding
[1] = biological target: kappa opiate receptor (KOR) (Homo sapiens, UniProt P41145); conditions: Roth 2002; cited from earlier work
[2] = Siebert 1994; cited from earlier work

Chain of κ-opioid receptor (KOR) (P41145 whole entry): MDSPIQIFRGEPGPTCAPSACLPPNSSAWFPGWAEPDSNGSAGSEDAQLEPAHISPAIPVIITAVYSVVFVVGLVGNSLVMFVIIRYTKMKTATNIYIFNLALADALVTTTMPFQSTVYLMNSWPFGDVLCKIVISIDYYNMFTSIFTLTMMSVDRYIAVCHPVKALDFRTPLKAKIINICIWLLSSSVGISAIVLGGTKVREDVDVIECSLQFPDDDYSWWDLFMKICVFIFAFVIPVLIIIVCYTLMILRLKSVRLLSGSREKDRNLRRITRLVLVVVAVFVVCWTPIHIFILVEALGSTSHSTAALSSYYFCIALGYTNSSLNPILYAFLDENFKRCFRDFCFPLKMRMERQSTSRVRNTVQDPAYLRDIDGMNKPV
Chain of kappa opiate receptor (KOR) (P41145 whole entry): as above

Compound | Ki (κ-opioid receptor (KOR)) | agonist character at the kappa opiate receptor [1] | human dose (psychedelic agent) [2]
COC(=O)[C@@H]1C[C@H](S)C(=O)[C@H]2[C@@]1(C)CC[C@H]1C(=O)O[C@H](c3ccoc3)C[C@]21C [2-Thiol salvinorin B] | 11.2 nM |  | 
COC(=O)[C@@H]1C[C@H](OC(C)=O)C(=O)[C@H]2[C@@]1(C)CC[C@H]1C(=O)O[C@H](c3ccoc3)C[C@]21C [Salvinorin A] |  | full agonist | 0.5 to 1 mg
COC(=O)[C@@H]1C[C@H](SC(C)=O)C(=O)[C@H]2[C@@]1(C)CC[C@H]1C(=O)O[C@H](c3ccoc3)C[C@]21C [Salvinorinyl-2-thioacetate] | 7.9 nM |  | 
